± gives the expanded uncertainty stated by the source.
Settings: 100 kPa, Liquid, Concentric cylinders viscometry

Structure (SMILES)	viscosity (298.15 K) [mPa·s]	viscosity (318.15 K) [mPa·s]	viscosity (338.15 K) [mPa·s]
CCC[N+]1(C)CCCC1.O=S(=O)([N-]S(=O)(=O)C(F)(F)F)C(F)(F)F	56.6 ± 9.1	26.48 ± 4.2	15.55 ± 2.5
CCCCCC[N+]1(C)CCCC1.O=S(=O)([N-]S(=O)(=O)C(F)(F)F)C(F)(F)F	98.3 ± 16	41.38 ± 6.6	21.88 ± 3.5
CCCC[N+]1(C)CCCC1.O=S(=O)([N-]S(=O)(=O)C(F)(F)F)C(F)(F)F	75.6 ± 12	34.3 ± 5.5	18.62 ± 3
